Measurements taken from patent US5256548A, “Antiviral antibiotic BU-4344V” (Bristol-Myers Squibb Company, priority 1992, dated 1993).
Values after ≈ are worked out from the molar mass of the structure shown.

How the values were obtained:
[1] = tested on: Herpes Simplex Virus Type I; assay: Plaque reduction assay, herpes simplex virus (Vero cells); format: cell-based, herpes simplex virus type 1
[2] = tested on: Vero cells; assay: Plaque reduction assay, minimal toxic dose (Vero cells); format: cell-based
Procedure: In vitro antiviral activity of BU-4344V was assessed using the herpes simplex virus type 1 (KOS strain) - Vero cell and influenza virus type A (Victoria strain) - Madin Darby canine kidney (MDCK) cell systems by the dye-uptake assay method [Antiviral Research, 3, 223-234 (1986)]. The cell suspension (200 μl ), containing 2×10^4 cells, was inoculated to each well of 96-well microplates and cultured at 37° C. for 48-72 hours under humidified 5% CO2 -95% air environment. The growth medium in each well was replaced with 250 μl of fresh medium (Eagle MEM without serum) containing BU-4344V at various doses, and then 50 μl medium containing approximately 10×TCID50 of the viruses was added to each well. For cytotoxicity tests, the same set of wells, without the viruses, were prepared. After 72 hours of incubation, the degree of inhibition of the viral-induced cytopathic effect and the drug-induced cytotoxicity were determined. […] The antiviral activity of BU-4344V was also determined using a conventional plaque reduction assay method.

[3] = tested on: herpes simplex virus type 1 (KOS strain); details: 72 h
[4] = tested on: Vero cells; details: dye-uptake assay, Vero cells without viral infection, 72 hours
[5] = tested on: influenza virus type A (Victoria strain); assay: Dye-uptake assay, inhibition of viral-induced cytopathic effect, influenza virus - MDCK cell system; format: cell-based; details: MDCK cells, 72 hours
[6] = tested on: Influenza Virus Type A; assay: Plaque reduction assay, influenza virus (MDCK cells); format: cell-based

| SMILES | ID50 [1] [µg/mL] | MTD (Minimal Toxic Dose) [2] [µg/mL] | ID50 (concentration showing 50% inhibition of the cytopathic effect) [3] [µg/mL] | TD50 (concentration exhibiting 50% cytotoxicity) [4] [µg/mL] | ID50 (concentration showing 50% inhibition of the cytopathic effect) [5] [µg/mL] | ID50 [6] [µg/mL] |
| --- | --- | --- | --- | --- | --- | --- |
| Nc1nc2c(ncn2COCCO)c(=O)[nH]1 [Acyclovir, reference compound] | 0.25 (≈ 1.11 µM) | > 100 | 0.2 | > 100 | – | – |
| NC(=O)c1ncn([C@@H]2O[C@H](CO)[C@@H](O)[C@H]2O)n1 [Ribavirin, reference compound] | – | – | – | – | 10 | 3.8 (≈ 15.6 µM) |
